The nature of this data set: In vivo pharmacokinetic study, plasma and liver, single oral dose in mice. The following applies: male, ICR, mouse, plasma, 80 mg/kg.

By AUC(0-inf) is commonly meant total exposure, with the tail of the curve extrapolated. One may read the Cmax as the highest concentration seen after dosing. Consider `O=c1c2ccc(Oc3ccc(OC(F)(F)F)cc3)cc2[nH]c2cc(Cl)cc(F)c12` [Compound 26, 3-Chloro-1-fluoro-6-(4-(trifluoromethoxy)phenoxy)acridin-9(10H)-one], for which the AUC(0-inf) amounted to 508 ng·h/mL and the Cmax is 17.2 ng/mL.
